In patent US20120178815A1, “Compositions of (-)-E-10-OH-NT and Methods for Their Synthesis and Use” (Adolor Corporation, priority 2007, published 2012):
Entries after “also recorded” stand apart in the source; their conditions may differ. Like-named read-outs stand apart in the source and are kept apart here.

Tests used:
[1] = target: T1, human serotonin transporter (hSERT) (Homo sapiens, UniProt P31645); experiment: 5HT transporter competitive binding assay, [3H]imipramine
T1 construct: expressed in transfected cells; host or cells: CHO cells (membranes)
Protocol: (§1) Bound radioactivity was determined by scintillation spectroscopy. […] The Ki values of the various test compounds were determined using standard methods.
as §1

[2] = target: human NE transporter (hNET) (Homo sapiens, UniProt P23975); experiment: NE transporter competitive binding assay, [3H]nisoxetine
Protocol: (§2) Protocol. […] Bound radioactivity was determined by scintillation spectroscopy. Non-specific binding was defined as the amount of binding that occurred in the presence of 1.0 μM desipramine. The Ki values of the various test compounds were determined using standard methods.
as §2

α2b adrenergic receptor = target: T2, α2b adrenergic receptor (Homo sapiens, UniProt P18089); experiment: α2b adrenergic receptor binding, [3H]RX821002; details: read-out: Affinity at α2b adrenergic receptor, Ki
T2 construct: expressed in transfected cells; host or cells: CHO cells
Protocol: Nonspecific binding was determined in the presence of 100 μM (−)-epinephrine. Bound radioactivity was determined by scintillation spectroscopy.

[3] = tested on: L5 SNL rats, tactile allodynia; experiment: L5-Single Nerve Ligation model of neuropathic pain (von Frey); type: in vivo, rat; details: 30 mg/kg; for antiallodynic activity: i.p.
Protocol: Protocol. […] The test animals were placed in a Plexiglas chamber (10 cm×20 cm×25 cm) and habituated for 15 minutes. The chamber was positioned on top of a mesh screen so that von Frey monofilaments could be presented to the plantar surface of both hindpaws. Measurement of tactile sensitivity for each hindpaw were obtained using the up/down method (Dixon, 1980) with seven Frey monofilaments (0.4, 1, 2, 4, 6, 8 and 15 grams). Each trial started with a von Frey force of 2 grams delivered to the right hindpaw for approximately 1-2 seconds and then the left hindpaw. If there was no withdrawal response, the next higher force was delivered. If there was a response, the next lower force was delivered. This procedure was performed until no response was made at the highest force (15 grams) or until four stimuli were administered following the initial response. Each test group contained 8 animals. The sham-operated control group, which were operated on but not subject to nerve ligation, contained 4 animals. All animals were tested at 60 minutes, and 240 minutes, post-administration of test compounds.
The 50% paw withdrawal threshold for each paw was calculated using the following formula: [Xth] log=[vFr] log+ky where [vFr] is the force of the last von Frey used, k=0.2249 which is the average interval (in log units) between the von Frey monofilaments, and y is a value that depends upon the pattern of withdrawal responses (Dixon, 1980). […] Testing for tactile sensitivity was performed twice and the mean 50% withdrawal value assigned as the tactile sensitivity for the right and left paws for each animal.
The E-10-OH-NT compounds were administered as either a maleate or succinate salt. AT was administered as a hydrochloride salt. Dosage amounts are based on the amount of free base. The test animals were placed in a Plexiglas chamber (10 cm×20 cm×25 cm) and habituated for 15 minutes. The chamber was positioned on top of a mesh screen so that von Frey monofilaments could be presented to the plantar surface of both hindpaws. Measurement of tactile sensitivity for each hindpaw were obtained using the up/down method (Dixon, 1980) with seven Frey monofilaments (0.4, 1, 2, 4, 6, 8 and 15 grams). Each trial started with a von Frey force of 2 grams delivered to the right hindpaw for approximately 1-2 seconds and then the left hindpaw. If there was no withdrawal response, the next higher force was delivered. If there was a response, the next lower force was delivered. This procedure was performed until no response was made at the highest force (15 grams) or until four stimuli were administered following the initial response. Each test group contained 8 animals. The sham-operated control group, which were operated on but not subject to nerve ligation, contained 4 animals. […]

[4] = tested on: gastrointestinal transit in Swiss-Webster mice; experiment: Mouse gastrointestinal transit (charcoal meal) assay; type: in vivo; details: relative to sterile water vehicle, 1, 2 or 4 hours before charcoal meal
Protocol: Protocol. The inhibitory effect of AT, NT and (−)-E-10-OH-NT were assessed in a rodent model of gastrointestinal transit. For the assay, male Swiss-Webster mice (20-25 g) were fasted overnight and treated with test compound or sterile water vehicle control 1, 2 or 4 hours before per oral administration of a charcoal meal consisting of charcoal:flour:water (1:2:8, w:w:w). Gastrointestinal transit was measured 25 minutes after the charcoal meal. (−)-E-10-OH-NT was administered as either the maleate or succinate salt; AT and NT were administered as hydrochloride salts; the dosage amounts are based on the amount of free base.
Gastrointestinal transit (GIT) was determined by removing the entire length of the small intestine and measuring how far the leading edge of the charcoal meal traveled in the small intestine. The percent GIT (% GIT) was determined by the following formula:
% GIT=[distance to charcoal leading edge (cm)/length of small intestine (cm)×100]

[5] = Example 4, read-out: Monoamine Transporter Affinity, 5HT, Ki
[6] = Example 4, read-out: Monoamine Transporter Affinity, NE, Ki

T1 sequence (P31645 whole entry): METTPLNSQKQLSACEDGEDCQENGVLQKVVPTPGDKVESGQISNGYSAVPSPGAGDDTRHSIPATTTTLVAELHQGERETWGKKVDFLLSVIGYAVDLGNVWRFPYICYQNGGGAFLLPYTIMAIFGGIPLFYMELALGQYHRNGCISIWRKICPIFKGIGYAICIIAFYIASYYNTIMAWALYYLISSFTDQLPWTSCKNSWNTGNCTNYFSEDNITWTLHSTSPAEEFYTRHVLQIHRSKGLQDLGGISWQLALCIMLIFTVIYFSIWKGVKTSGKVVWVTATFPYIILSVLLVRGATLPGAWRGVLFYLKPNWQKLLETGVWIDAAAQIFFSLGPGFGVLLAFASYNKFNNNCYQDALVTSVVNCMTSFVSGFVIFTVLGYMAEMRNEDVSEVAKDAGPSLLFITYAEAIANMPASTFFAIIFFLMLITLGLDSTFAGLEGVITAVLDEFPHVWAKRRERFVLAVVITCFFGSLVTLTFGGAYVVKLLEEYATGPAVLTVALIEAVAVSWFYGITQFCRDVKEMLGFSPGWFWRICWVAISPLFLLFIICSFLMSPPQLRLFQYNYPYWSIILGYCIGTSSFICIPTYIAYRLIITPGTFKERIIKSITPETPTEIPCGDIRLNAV
human NE transporter (hNET), sequence (P23975 whole entry): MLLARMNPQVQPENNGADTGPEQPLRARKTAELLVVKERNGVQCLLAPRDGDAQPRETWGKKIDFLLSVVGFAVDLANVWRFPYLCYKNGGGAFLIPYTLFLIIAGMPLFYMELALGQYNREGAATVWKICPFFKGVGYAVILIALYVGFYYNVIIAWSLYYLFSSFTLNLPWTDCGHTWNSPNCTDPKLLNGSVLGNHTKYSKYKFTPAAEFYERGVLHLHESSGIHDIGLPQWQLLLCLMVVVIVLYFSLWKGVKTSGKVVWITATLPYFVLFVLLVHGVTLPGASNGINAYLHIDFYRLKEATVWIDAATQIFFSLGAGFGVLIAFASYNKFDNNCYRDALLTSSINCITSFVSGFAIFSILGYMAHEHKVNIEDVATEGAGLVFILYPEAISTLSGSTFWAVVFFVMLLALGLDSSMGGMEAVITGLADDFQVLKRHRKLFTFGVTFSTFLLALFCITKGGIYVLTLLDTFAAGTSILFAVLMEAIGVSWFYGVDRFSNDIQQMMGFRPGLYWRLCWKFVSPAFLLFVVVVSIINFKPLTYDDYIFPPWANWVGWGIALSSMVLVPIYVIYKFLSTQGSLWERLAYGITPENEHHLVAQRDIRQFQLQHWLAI
T2 sequence (P18089 whole entry): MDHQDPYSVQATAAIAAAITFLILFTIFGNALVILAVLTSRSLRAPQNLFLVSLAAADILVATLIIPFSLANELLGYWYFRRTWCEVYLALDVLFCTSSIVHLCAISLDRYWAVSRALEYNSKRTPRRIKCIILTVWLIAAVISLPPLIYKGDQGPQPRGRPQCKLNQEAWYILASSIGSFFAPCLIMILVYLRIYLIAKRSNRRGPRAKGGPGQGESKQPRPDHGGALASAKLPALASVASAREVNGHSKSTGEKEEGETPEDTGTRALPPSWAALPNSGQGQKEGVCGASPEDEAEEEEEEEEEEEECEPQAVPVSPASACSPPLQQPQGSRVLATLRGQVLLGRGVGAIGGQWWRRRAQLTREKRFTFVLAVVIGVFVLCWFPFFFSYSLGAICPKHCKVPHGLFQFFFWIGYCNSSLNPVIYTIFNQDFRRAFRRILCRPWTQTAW

CNCC/C=C1\c2ccccc2C[C@H](O)c2ccccc21 (stereo in doubt) [(+)-E-10-OH-NT]
Ki [1, 5]: 400 nM | Ki ([1]; Example 14, read-out: SERT Ki): 361 nM | Ki [2, 6]: 52 nM | Ki ([2]; Example 14, read-out: NET Ki): 95 nM | Ki (α2b adrenergic receptor): 4200 nM | antiallodynic activity [3]: comparable to that of the vehicle-only control

CNCC/C=C1\c2ccccc2C[C@@H](O)c2ccccc21 (stereo in doubt) [(−)-E-10-OH-NT]
Ki [1, 5]: 660 nM | Ki ([1]; Example 14, read-out: SERT Ki): 617 nM | Ki [2, 6]: 44 nM | Ki ([2]; Example 14, read-out: NET Ki): 81 nM | inhibition of gastrointestinal transit (% GIT) [4]: markedly lower inhibition of transit as compared to both AT and NT | Ki (α2b adrenergic receptor): 4300 nM | antiallodynic activity [3]: statistically significant over that observed for the vehicle-treated control group; also recorded: greater than that observed for the vehicle-treated control group | antiallodynic activity, oral ([3]; p.o. and 60 mg/kg p.o.): greater than that observed for the vehicle-treated control
